Data: the NIST ThermoML archive (doi:10.1016/j.fluid.2012.06.031)

How the values were obtained:
[1] = refractive index (Na D-line) (dimensionless); conditions: 298.15 K; 101.33 kPa; Liquid; Standard Abbe refractometry
[2] = 298.15 K; 101.33 kPa; Liquid; Pycnometric method
[3] = xn = mol fraction of the nth substance listed; conditions: 298.15 K, 101 kPa, Liquid, Pycnometric method
[4] = excess molar enthalpy (molar enthalpy of mixing); xn = mol fraction of the nth substance listed; conditions: 298.15 K, 101 kPa, Liquid, solution calorimetry
[5] = refractive index (Na D-line) (dimensionless); xn = mol fraction of the nth substance listed; conditions: 298.15 K, 101 kPa, Liquid, Standard Abbe refractometry

CC(C)CC(C)(C)C [2,2,4-trimethylpentane]
Conditions	mass density [kg/m3]	refractive index
[1]	–	1.3889
[2]	687.9	–

CC(C)CC(C)(C)C [2,2,4-trimethylpentane] + CCCCO
Conditions	excess molar enthalpy, [4] [kcal/mol]	mass density, [3] [kg/m3]	refractive index, [5]
x2 = 0.05	0.0947	–	–
x2 = 0.0501	–	690.95	1.38897
x2 = 0.1	0.1201	–	–
x2 = 0.1001	–	694.28	1.38909
x2 = 0.1501	–	697.81	1.38925
x2 = 0.1502	0.1362	–	–
x2 = 0.2	0.1404	701.56	1.38946
x2 = 0.2995	0.1489	–	–
x2 = 0.3001	–	709.77	1.38999
x2 = 0.3999	–	718.98	1.39067
x2 = 0.4	0.1503	–	–
x2 = 0.5	–	729.4	1.39149
x2 = 0.5001	0.1419	–	–
x2 = 0.5999	–	741.16	1.39244
x2 = 0.6002	0.1233	–	–
x2 = 0.6999	–	754.51	1.3935
x2 = 0.7	0.0968	–	–
x2 = 0.8	0.0686	769.68	1.39466
x2 = 0.8499	0.0532	–	–
x2 = 0.85	–	778.03	1.39527
x2 = 0.9	0.0359	786.94	1.3959
x2 = 0.9499	0.0188	–	–
x2 = 0.95	–	796.46	1.39654

CC(C)CC(C)(C)C [2,2,4-trimethylpentane] + CCCO
Conditions	excess molar enthalpy, [4] [kcal/mol]	mass density, [3] [kg/m3]	refractive index, [5]
x2 = 0.0502	–	689.82	1.3885
x2 = 0.0516	0.0974	–	–
x2 = 0.1	0.1255	–	–
x2 = 0.1002	–	692.19	1.38816
x2 = 0.15	0.1338	–	–
x2 = 0.1504	–	694.9	1.38785
x2 = 0.1999	–	697.87	1.38759
x2 = 0.2001	0.1457	–	–
x2 = 0.3	–	704.65	1.38712
x2 = 0.3001	0.1564	–	–
x2 = 0.3999	–	712.46	1.38669
x2 = 0.4001	0.1561	–	–
x2 = 0.5	–	721.44	1.38627
x2 = 0.5002	0.144	–	–
x2 = 0.6001	0.1255	731.85	1.3858
x2 = 0.7	–	744.14	1.38526
x2 = 0.7048	0.0969	–	–
x2 = 0.7999	–	758.95	1.38462
x2 = 0.8	0.0709	–	–
x2 = 0.85	0.0561	767.56	1.38426
x2 = 0.8998	0.0388	–	–
x2 = 0.9	–	777.1	1.38387
x2 = 0.9499	0.0204	–	–
x2 = 0.9501	–	787.71	1.38345

CCCCO [butan-1-ol]
Conditions	mass density [kg/m3]	refractive index
[1]	–	1.3974
[2]	805.8	–

CCCCCO [pentan-1-ol]
Conditions	mass density [kg/m3]	refractive index
[1]	–	1.4078
[2]	810.8	–

CCCCCO [pentan-1-ol] + CC(C)CC(C)(C)C
Conditions	excess molar enthalpy, [4] [kcal/mol]	mass density, [3] [kg/m3]	refractive index, [5]
x1 = 0.05	0.09	–	–
x1 = 0.0501	–	691.14	1.38936
x1 = 0.0998	0.1135	–	–
x1 = 0.1	–	695.2	1.38993
x1 = 0.1499	–	699.5	1.39059
x1 = 0.15	0.127	–	–
x1 = 0.1996	0.1326	–	–
x1 = 0.2017	–	704.19	1.39135
x1 = 0.2997	0.1439	–	–
x1 = 0.3001	–	713.84	1.39297
x1 = 0.3999	0.1413	–	–
x1 = 0.4	–	724.6	1.39478
x1 = 0.4998	0.1317	–	–
x1 = 0.5001	–	736.36	1.3967
x1 = 0.5999	0.109	–	–
x1 = 0.6001	–	749.12	1.3987
x1 = 0.7	0.091	762.91	1.40077
x1 = 0.7999	–	777.72	1.40293
x1 = 0.8	0.063	–	–
x1 = 0.85	0.0472	785.54	1.40407
x1 = 0.9	0.0321	793.63	1.40525
x1 = 0.95	0.015	801.98	1.40649

CCCO [propan-1-ol]
Conditions	mass density [kg/m3]	refractive index
[1]	–	1.3832
[2]	799.6	–
